This test concerns HBV. Nature of the test: In vitro anti-HBV activity in HepG2.2.15 cell line (intracellular HBV DNA by qPCR at 1 μM). In kind it is cell-based. The conditions noted are these: Hepatitis B virus, 144 h; HepG2.2.15 cells, 1 μM compound, 6 days, intracellular HBV DNA as percentage compared to vehicle control (0.5% DMSO). On the procedure: The stable transfected HBV cell line, called HepG2.2.15 cells was a valuable model with high reproducibility and commonly used for drug screening. To identify the anti-HBV activity, HepG2.2.15 cells were seeded at 5×10^5 cells/well with high glucose Dulbecco's modified Eagle medium (DMEM) containing 10% heat inactivated fetal bovine serum (FBS), 300 mg/L G418, non-essential amino acids (NEAA) 100 units/ml Antibiotic-Antimycotic, and allowed to stand for an overnight in an incubator set at 37° C. and 5% C02. HepG2.2.15 cells in each well were treated with the medium containing a compound (1 μM with 0.5% dimethyl sulfoxide (DMSO final concentration) for three days in the incubator. After that the medium was removed and fresh medium containing the compound was added to the cells for another 3 days. After 6 days of treatment, intracellular HBV DNA was extracted and determined by using quantitative real-time PCR (qPCR) technique with specific primers. Intrahepatic HBV DNA viral load was reported as percentage compared to vehicle control (0.5% DMSO) as shown in Table A.
“B” means % ranging between 80 and 90; “C” means % ranging between 70 and 80; “D” means % ranging between 60 and 70; “E” means % ranging between 45 and 60, “F” means %<45.
A general note: Quantitative PCR measures a nucleic acid by following its amplification.

The molecule `N#Cc1cc(NC(=O)[C@H]2CCN(C(=O)c3ccc(-c4ccc(F)cc4)[nH]3)C2)ccc1F` [Example 76, (S)—N-(3-cyano-4-fluorophenyl)-1-(5-(4-fluorophenyl)-1H-pyrrole-2-carbonyl)pyrrolidine-3-carboxamide] displayed an activity at 1 µM of 45 to 60%.

With `O=C(Nc1cc(F)c(F)c(F)c1)[C@H]1CCN(C(=O)c2ccc(-c3ccncc3)[nH]2)C1` [Example 77, (S)-1-(5-(pyridin-4-yl)-1H-pyrrole-2-carbonyl)-N-(3,4,5-trifluorophenyl)pyrrolidine-3-carboxamide], the activity at 1 µM is less than 45%.

The molecule `N#Cc1cc(NC(=O)[C@H]2CCN(C(=O)c3ccc(-c4ccncc4)[nH]3)C2)ccc1F` [Example 78, (S)—N-(3-cyano-4-fluorophenyl)-1-(5-(pyridin-4-yl)-1H-pyrrole-2-carbonyl)pyrrolidine-3-carboxamide] yielded an activity at 1 µM of 70 to 80%.

In turn, `O=C(Nc1cc(F)c(F)c(F)c1)[C@H]1CCN(C(=O)c2ccc(-c3cncnc3)[nH]2)C1` [Example 79, (S)-1-(5-(pyrimidin-5-yl)-1H-pyrrole-2-carbonyl)-N-(3,4,5-trifluorophenyl)pyrrolidine-3-carboxamide] showed an activity at 1 µM of less than 45%.

With `Cc1ncccc1-c1ccc(C(=O)N2CC[C@H](C(=O)Nc3cc(F)c(F)c(F)c3)C2)[nH]1` [Example 80, (S)-1-(5-(2-methylpyridin-3-yl)-1H-pyrrole-2-carbonyl)-N-(3,4,5-trifluorophenyl) pyrrolidine-3-carboxamide], the activity at 1 µM was less than 45%.

Consider `Cc1ncccc1-c1ccc(C(=O)N2CC[C@H](C(=O)Nc3ccc(F)c(C#N)c3)C2)[nH]1` [Example 81, (S)—N-(3-cyano-4-fluorophenyl)-1-(5-(2-methylpyridin-3-yl)-1H-pyrrole-2-carbonyl) pyrrolidine-3-carboxamide], for which the activity at 1 µM was 45 to 60%.

`O=C(Nc1cc(F)c(F)c(F)c1)[C@H]1CCN(C(=O)c2ccc(-c3cccnc3)[nH]2)C1` [Example 82] had an activity at 1 µM of 45 to 60%.

Regarding `C[C@H]1[C@@H](C(=O)Nc2cc(F)c(F)c(F)c2)CCN1C(=O)c1ccc(-c2cnccn2)[nH]1` [Example 84, (2S,3S)-2-methyl-1-(5-(pyrazin-2-yl)-1H-pyrrole-2-carbonyl)-N-(3,4,5-trifluorophenyl) pyrrolidine-3-carboxamide], the activity at 1 µM is greater than 90%.

Molecule `Cc1ncc(-c2ccc(C(=O)N3CC[C@H](C(=O)Nc4cc(F)c(F)c(F)c4)C3)[nH]2)cn1` [Example 86, (S)-1-(5-(2-methylpyrimidin-5-yl)-1H-pyrrole-2-carbonyl)-N-(3,4,5-trifluorophenyl)pyrrolidine-3-carboxamide] returned an activity at 1 µM of less than 45%.

In turn, `Cc1n[nH]c(C)c1-c1ccc(C(=O)N2CC[C@H](C(=O)Nc3cc(F)c(F)c(F)c3)C2)[nH]1` [Example 87, (S)-1-(5-(3,5-dimethyl-1H-pyrazol-4-yl)-1H-pyrrole-2-carbonyl)-N-(3,4,5-trifluorophenyl) pyrrolidine-3-carboxamide] had an activity at 1 µM of less than 45%.

`Cc1nn(C)c(C)c1-c1ccc(C(=O)N2CC[C@H](C(=O)Nc3cc(F)c(F)c(F)c3)C2)[nH]1` [Example 88, (S)—N-(3,4,5-trifluorophenyl)-1-(5-(1,3,5-trimethyl-1H-pyrazol-4-yl)-1H-pyrrole-2-carbonyl) pyrrolidine-3-carboxamide] showed an activity at 1 µM of less than 45%.

As for `Cc1ncncc1-c1ccc(C(=O)N2CC[C@H](C(=O)Nc3cc(F)c(F)c(F)c3)C2)[nH]1` [Example 89, (S)-1-(5-(4-methylpyrimidin-5-yl)-1H-pyrrole-2-carbonyl)-N-(3,4,5-trifluorophenyl) pyrrolidine-3-carboxamide], the activity at 1 µM is less than 45%.

In turn, `O=C(Nc1cc(F)c(F)c(F)c1)[C@H]1CCN(C(=O)c2ccc(-c3ccccn3)[nH]2)C1` [Example 90, (S)-1-(5-(pyridin-2-yl)-1H-pyrrole-2-carbonyl)-N-(3,4,5-trifluorophenyl)pyrrolidine-3-carboxamide] yielded an activity at 1 µM of 70 to 80%.

Consider `Cn1ccnc1-c1ccc(C(=O)N2CC[C@H](C(=O)Nc3cc(F)c(F)c(F)c3)C2)[nH]1` [Example 91, (S)-1-(5-(1-methyl-1H-imidazol-2-yl)-1H-pyrrole-2-carbonyl)-N-(3,4,5-trifluorophenyl)pyrrolidine-3-carboxamide], for which the activity at 1 µM was less than 45%.

`Cc1nccnc1-c1ccc(C(=O)N2CC[C@H](C(=O)Nc3cc(F)c(F)c(F)c3)C2)[nH]1` [Example 92, (S)-1-(5-(3-methylpyrazin-2-yl)-1H-pyrrole-2-carbonyl)-N-(3,4,5-trifluorophenyl)pyrrolidine-3-carboxamide]: the activity at 1 µM was 45 to 60%.

Molecule `Cc1nccnc1-c1ccc(C(=O)N2CC[C@H](C(=O)Nc3cc(F)c(F)c(F)c3)[C@@H]2C)[nH]1` [Example 93, (2S,3S)-2-methyl-1-(5-(3-methylpyrazin-2-yl)-1H-pyrrole-2-carbonyl)-N-(3,4,5-trifluorophenyl) pyrrolidine-3-carboxamide] came in with an activity at 1 µM of less than 45%.

`Cc1ncnc(C)c1-c1ccc(C(=O)N2CC[C@H](C(=O)Nc3ccc(F)c(C#N)c3)C2)[nH]1` [Example 94, (S)—N-(3-cyano-4-fluorophenyl)-1-(5-(4,6-dimethylpyrimidin-5-yl)-1H-pyrrole-2-carbonyl)pyrrolidine-3-carboxamide]: the activity at 1 µM lay within 60 to 70%.

As for `O=C(Nc1cc(F)c(F)c(F)c1)[C@H]1CCN(C(=O)c2ccc(-c3ccncc3F)[nH]2)C1` [Example 95, (S)-1-(5-(3-fluoropyridin-4-yl)-1H-pyrrole-2-carbonyl)-N-(3,4,5-trifluorophenyl) pyrrolidine-3-carboxamide], the activity at 1 µM lay in the range of 45 to 60%.

The molecule `O=C(Nc1cc(F)c(F)c(F)c1)[C@H]1CCN(C(=O)c2ccc(-c3cccnn3)[nH]2)C1` [Example 96, (S)-1-(5-(pyridazin-3-yl)-1H-pyrrole-2-carbonyl)-N-(3,4,5-trifluorophenyl)pyrrolidine-3-carboxamide] displayed an activity at 1 µM of 45 to 60%.

Regarding `N#Cc1ncccc1-c1ccc(C(=O)N2CC[C@H](C(=O)Nc3cc(F)c(F)c(F)c3)C2)[nH]1` [Example 97, (S)-1-(5-(2-cyanopyridin-3-yl)-1H-pyrrole-2-carbonyl)-N-(3,4,5-trifluorophenyl) pyrrolidine-3-carboxamide], the activity at 1 µM is less than 45%.

Molecule `Cc1ccnnc1-c1ccc(C(=O)N2CC[C@H](C(=O)Nc3cc(F)c(F)c(F)c3)C2)[nH]1` [Example 98, (S)-1-(5-(4-methylpyridazin-3-yl)-1H-pyrrole-2-carbonyl)-N-(3,4,5-trifluorophenyl) pyrrolidine-3-carboxamide] gave an activity at 1 µM of 70 to 80%.

On to `COc1ncnc(C)c1-c1ccc(C(=O)N2CC[C@H](C(=O)Nc3ccc(F)c(Cl)c3)C2)[nH]1` [Example 106, (S)—N-(3-chloro-4-fluorophenyl)-1-(5-(4-methoxy-6-methylpyrimidin-5-yl)-1H-pyrrole-2-carbonyl)pyrrolidine-3-carboxamide], for which the activity at 1 µM is less than 45%.

Molecule `Cc1ncn(C)c1-c1ccc(C(=O)N2CC[C@H](C(=O)Nc3cc(F)c(F)c(F)c3)C2)[nH]1` [Example 107, (S)-1-(5-(1,4-dimethyl-1H-imidazol-5-yl)-1H-pyrrole-2-carbonyl)-N-(3,4,5-trifluorophenyl) pyrrolidine-3-carboxamide] registered an activity at 1 µM of 70 to 80%.

Turning to `Cc1ncsc1-c1ccc(C(=O)N2CC[C@H](C(=O)Nc3cc(F)c(F)c(F)c3)C2)[nH]1` [Example 108, (S)-1-(5-(4-methylthiazol-5-yl)-1H-pyrrole-2-carbonyl)-N-(3,4,5-trifluorophenyl) pyrrolidine-3-carboxamide], the activity at 1 µM lay within 45 to 60%.

In turn, `Cc1noc(C)c1-c1ccc(C(=O)N2CC[C@H](C(=O)Nc3cc(F)c(F)c(F)c3)C2)[nH]1` [Example 109, (S)-1-(5-(3,5-dimethylisoxazol-4-yl)-1H-pyrrole-2-carbonyl)-N-(3,4,5-trifluorophenyl) pyrrolidine-3-carboxamide] gave an activity at 1 µM of 60 to 70%.

Regarding `Cc1nn(CC(=O)N2CC(O)C2)c(C)c1-c1ccc(C(=O)N2CC[C@H](C(=O)Nc3cc(F)c(F)c(F)c3)C2)[nH]1` [Example 112, (S)-1-(5-(1-(2-(3-hydroxyazetidin-1-yl)-2-oxoethyl)-3,5-dimethyl-1H-pyrazol-4-yl)-1H-pyrrole-2-carbonyl)-N-(3,4,5-trifluorophenyl)pyrrolidine-3-carboxamide], the activity at 1 µM lay in the range of 60 to 70%.

For the molecule `Cc1cc[nH]c(=O)c1-c1ccc(C(=O)N2CC[C@H](C(=O)Nc3cc(F)c(F)c(F)c3)C2)[nH]1` [Example 118, (S)-1-(5-(4-methyl-2-oxo-1,2-dihydropyridin-3-yl)-1H-pyrrole-2-carbonyl)-N-(3,4,5-trifluorophenyl)pyrrolidine-3-carboxamide], the activity at 1 µM lay within 60 to 70%.

Regarding `O=C(Nc1cc(F)c(F)c(F)c1)[C@H]1CCN(C(=O)c2ccc(-c3cn[nH]c(=O)c3)[nH]2)C1` [Example 121, (S)-1-(5-(6-oxo-1,6-dihydropyridazin-4-yl)-1H-pyrrole-2-carbonyl)-N-(3,4,5-trifluorophenyl)pyrrolidine-3-carboxamide], the activity at 1 µM was in the range of 80 to 90%.

`Cc1cn[nH]c(=O)c1-c1ccc(C(=O)N2CC[C@H](C(=O)Nc3cc(F)c(F)c(F)c3)C2)[nH]1` [Example 124, (S)-1-(5-(5-methyl-3-oxo-2,3-dihydropyridazin-4-yl)-1H-pyrrole-2-carbonyl)-N-(3,4,5-trifluorophenyl)pyrrolidine-3-carboxamide]: the activity at 1 µM was in the range of 45 to 60%.

The values are drawn from patent US20230391752A1, “PYRROLIDINE-3-CARBOXAMIDE DERIVATIVES AND RELATED USES” (Chulalongkorn University, priority 2020, published 2023).
